# Data as given in ChEMBL document CHEMBL2073920 (Eur J Pharmacol, 1998).
# Key:
# [1] = molecular target: T1, ATP-dependent translocase ABCB1 (Homo sapiens, UniProt P08183); experiment: TP_TRANSPORTER: inhibition of Rhodamine 123 transepithelial transport (basal to apical)(R123: 5 uM, Midazolam: 100 uM) in Caco-2 cells; format: functional, cell-based; conditions: caco-2, 100 µM
# [2] = molecular target: T1, ATP-dependent translocase ABCB1; experiment: TP_TRANSPORTER: transepithelial transport (basal to apical) in Caco-2 cells; format: functional, cell-based
# T1 sequence (P08183 whole entry): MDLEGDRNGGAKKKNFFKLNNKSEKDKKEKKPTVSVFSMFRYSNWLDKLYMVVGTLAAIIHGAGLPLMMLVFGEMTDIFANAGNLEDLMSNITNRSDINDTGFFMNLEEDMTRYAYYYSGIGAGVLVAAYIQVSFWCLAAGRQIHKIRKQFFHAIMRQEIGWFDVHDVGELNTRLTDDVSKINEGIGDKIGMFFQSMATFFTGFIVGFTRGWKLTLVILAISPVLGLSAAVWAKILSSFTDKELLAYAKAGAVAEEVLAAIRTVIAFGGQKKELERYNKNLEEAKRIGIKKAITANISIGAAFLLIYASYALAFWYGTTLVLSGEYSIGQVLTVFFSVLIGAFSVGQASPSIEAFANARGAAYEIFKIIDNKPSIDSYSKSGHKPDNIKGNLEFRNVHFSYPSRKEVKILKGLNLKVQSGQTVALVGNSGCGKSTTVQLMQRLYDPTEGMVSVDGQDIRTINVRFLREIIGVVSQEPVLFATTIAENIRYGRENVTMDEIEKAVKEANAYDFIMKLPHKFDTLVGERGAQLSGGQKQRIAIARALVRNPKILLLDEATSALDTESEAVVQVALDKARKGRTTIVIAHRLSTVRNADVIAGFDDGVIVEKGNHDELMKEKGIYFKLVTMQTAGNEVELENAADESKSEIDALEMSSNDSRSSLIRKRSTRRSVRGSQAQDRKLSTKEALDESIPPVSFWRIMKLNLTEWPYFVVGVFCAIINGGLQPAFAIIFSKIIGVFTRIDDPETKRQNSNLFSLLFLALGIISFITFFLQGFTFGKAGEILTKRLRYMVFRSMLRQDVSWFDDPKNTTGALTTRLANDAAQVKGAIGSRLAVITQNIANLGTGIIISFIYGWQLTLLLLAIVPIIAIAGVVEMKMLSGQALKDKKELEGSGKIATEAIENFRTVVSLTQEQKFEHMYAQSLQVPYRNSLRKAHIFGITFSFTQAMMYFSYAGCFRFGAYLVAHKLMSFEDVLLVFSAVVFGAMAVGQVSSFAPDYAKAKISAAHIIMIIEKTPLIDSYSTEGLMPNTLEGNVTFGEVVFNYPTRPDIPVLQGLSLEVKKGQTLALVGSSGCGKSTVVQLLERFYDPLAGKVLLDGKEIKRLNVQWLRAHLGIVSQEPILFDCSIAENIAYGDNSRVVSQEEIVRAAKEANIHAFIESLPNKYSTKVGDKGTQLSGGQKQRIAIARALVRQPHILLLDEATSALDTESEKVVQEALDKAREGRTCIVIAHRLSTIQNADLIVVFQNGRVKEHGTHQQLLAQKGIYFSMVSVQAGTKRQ
smiles,measurement,setting,value
Cc1ncc2n1-c1ccc(Cl)cc1C(c1ccccc1F)=NC2 [MIDAZOLAM],Activity,[1],inhibitor [(at a rough estimate) 55 % of control]
same,Activity,[2],substrate [+]
